Columns and labels:
[1] = biological target: human Cereblon WT GST-tagged protein (Homo sapiens (Human), UniProt Q96SW2); test: CRBN-binding affinity, HTRF (CEREBLON BINDING kit, CISBIO); settings: HTRF inhibitory activity
Procedure, shortened: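 Compounds were mixed with GST-tagged human Cereblon WT protein, then with Thalidomide-Red tracer and GST Eu antibody, and binding was read by HTRF. Inhibition rate was calculated from 620 nm emission relative to blank control wells (no protein) and solvent control wells.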

IKZF1 = IKZF1 (Homo sapiens (Human), UniProt Q13422+Q96SW2); test: Western blot, substrate protein expression in hPBMC: IKZF1; assay type: cell-based; settings: hPBMC, compound 500 nM, 24 hours, Western blot
IKZF1, sequence (Q13422 whole entry): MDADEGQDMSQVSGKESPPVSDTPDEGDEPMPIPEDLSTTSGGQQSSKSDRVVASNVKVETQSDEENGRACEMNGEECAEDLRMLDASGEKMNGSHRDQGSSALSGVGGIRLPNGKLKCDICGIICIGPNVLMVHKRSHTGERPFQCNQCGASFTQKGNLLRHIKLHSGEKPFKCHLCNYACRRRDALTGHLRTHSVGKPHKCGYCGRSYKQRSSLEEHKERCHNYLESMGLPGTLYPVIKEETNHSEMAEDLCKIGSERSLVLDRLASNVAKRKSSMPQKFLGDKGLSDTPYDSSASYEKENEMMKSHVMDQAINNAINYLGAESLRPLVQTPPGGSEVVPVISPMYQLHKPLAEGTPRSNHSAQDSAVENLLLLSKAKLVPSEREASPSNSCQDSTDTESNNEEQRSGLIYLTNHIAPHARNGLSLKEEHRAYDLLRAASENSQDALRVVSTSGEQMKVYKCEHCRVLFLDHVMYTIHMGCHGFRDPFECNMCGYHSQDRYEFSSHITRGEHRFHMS
IKZF1, sequence (Q96SW2 whole entry): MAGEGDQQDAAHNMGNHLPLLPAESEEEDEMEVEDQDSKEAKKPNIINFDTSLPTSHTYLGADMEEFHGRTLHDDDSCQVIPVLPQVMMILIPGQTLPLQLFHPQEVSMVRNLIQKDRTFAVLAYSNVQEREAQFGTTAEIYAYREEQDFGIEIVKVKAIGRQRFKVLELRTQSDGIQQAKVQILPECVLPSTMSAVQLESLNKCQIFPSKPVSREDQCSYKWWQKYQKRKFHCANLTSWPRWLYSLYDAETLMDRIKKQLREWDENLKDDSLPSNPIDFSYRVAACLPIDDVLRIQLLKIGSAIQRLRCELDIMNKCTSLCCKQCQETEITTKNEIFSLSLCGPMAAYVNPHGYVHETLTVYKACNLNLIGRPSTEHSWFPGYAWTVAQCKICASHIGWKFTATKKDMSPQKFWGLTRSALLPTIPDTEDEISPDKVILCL
IKZF1, sequence (Q16531 whole entry partner): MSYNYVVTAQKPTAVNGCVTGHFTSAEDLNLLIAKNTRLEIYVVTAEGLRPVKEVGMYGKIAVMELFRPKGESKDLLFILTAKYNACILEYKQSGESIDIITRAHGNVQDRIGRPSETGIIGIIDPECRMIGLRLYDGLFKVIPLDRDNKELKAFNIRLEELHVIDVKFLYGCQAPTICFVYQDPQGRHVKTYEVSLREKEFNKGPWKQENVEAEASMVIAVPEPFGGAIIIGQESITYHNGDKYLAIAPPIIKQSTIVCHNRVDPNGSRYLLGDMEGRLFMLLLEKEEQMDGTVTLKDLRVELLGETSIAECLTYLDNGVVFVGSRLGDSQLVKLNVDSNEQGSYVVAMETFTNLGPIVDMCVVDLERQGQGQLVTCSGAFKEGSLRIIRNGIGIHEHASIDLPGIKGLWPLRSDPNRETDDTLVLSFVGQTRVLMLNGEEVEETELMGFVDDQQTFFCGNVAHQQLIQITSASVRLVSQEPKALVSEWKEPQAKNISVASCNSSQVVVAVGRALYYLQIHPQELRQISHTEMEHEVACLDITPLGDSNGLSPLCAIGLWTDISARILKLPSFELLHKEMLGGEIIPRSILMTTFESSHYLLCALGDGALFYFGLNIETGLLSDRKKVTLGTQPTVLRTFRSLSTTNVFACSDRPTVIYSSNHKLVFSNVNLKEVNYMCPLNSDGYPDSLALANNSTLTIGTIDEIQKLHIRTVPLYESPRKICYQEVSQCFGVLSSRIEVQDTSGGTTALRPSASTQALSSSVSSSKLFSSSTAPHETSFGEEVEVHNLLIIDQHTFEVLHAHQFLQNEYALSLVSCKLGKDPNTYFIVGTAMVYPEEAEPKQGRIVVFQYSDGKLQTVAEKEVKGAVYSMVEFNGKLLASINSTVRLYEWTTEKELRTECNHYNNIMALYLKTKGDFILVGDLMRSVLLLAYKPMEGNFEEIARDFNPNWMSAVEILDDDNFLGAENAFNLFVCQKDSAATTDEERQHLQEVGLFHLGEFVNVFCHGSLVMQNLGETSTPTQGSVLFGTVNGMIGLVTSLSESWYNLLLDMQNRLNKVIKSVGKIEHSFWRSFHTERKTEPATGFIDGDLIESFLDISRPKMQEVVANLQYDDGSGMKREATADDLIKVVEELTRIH
Procedure, shortened: (§1)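 hPBMC, 1×10^6 cells/mL, 24 h compound exposure; RIPA lysis, BCA protein assay, SDS-PAGE, NC membrane immunoblot. Densitometry vs internal control → % protein remaining; degradation % = 100% − remaining; DC50 = conc. at 50% of DMSO band signal.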

IKZF3 = IKZF3 (Homo sapiens (Human), UniProt Q96SW2+Q9UKT9); test: Western blot, substrate protein expression in hPBMC: IKZF3; assay type: cell-based; settings: hPBMC, compound 500 nM, 24 hours, Western blot
IKZF3, sequence (Q9UKT9 whole entry): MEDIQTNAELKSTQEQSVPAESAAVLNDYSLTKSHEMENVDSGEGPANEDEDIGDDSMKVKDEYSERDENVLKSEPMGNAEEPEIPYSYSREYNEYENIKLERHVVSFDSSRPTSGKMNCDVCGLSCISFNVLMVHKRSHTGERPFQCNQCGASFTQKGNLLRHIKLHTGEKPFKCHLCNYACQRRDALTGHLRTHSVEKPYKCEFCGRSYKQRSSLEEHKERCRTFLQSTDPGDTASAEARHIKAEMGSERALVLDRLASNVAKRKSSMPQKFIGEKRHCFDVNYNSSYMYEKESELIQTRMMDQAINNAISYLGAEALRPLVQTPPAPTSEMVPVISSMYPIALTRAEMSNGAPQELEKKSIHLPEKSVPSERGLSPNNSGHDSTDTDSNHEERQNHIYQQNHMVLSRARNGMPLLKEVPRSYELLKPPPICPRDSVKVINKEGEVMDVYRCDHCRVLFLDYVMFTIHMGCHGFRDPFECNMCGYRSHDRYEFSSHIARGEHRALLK
IKZF3, sequence (Q96SW2 whole entry): as the sequence (Q96SW2 whole entry) above
IKZF3, sequence (Q16531 whole entry partner): as the sequence (Q16531 whole entry partner) above
Procedure, shortened: as §1

GSPT1 = GSPT1 (Homo sapiens (Human), UniProt P15170+Q96SW2); test: Western blot, substrate protein expression in hPBMC: GSPT1; assay type: cell-based; settings: hPBMC, compound 500 nM, 24 hours, Western blot
GSPT1, sequence (P15170 whole entry): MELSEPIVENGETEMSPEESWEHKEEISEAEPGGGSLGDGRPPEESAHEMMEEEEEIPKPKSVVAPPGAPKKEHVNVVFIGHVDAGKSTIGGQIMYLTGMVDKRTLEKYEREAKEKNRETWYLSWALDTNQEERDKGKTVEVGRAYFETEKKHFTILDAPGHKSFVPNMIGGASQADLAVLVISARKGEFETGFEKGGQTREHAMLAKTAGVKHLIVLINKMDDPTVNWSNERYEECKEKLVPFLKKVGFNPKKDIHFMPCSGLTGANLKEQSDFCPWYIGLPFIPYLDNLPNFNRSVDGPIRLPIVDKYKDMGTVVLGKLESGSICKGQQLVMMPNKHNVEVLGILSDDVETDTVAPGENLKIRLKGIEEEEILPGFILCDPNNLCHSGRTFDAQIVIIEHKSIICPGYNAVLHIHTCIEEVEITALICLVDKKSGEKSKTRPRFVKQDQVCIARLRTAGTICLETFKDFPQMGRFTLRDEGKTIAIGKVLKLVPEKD
GSPT1, sequence (Q96SW2 whole entry): as the sequence (Q96SW2 whole entry) above
GSPT1, sequence (Q16531 whole entry partner): as the sequence (Q16531 whole entry partner) above
Procedure, shortened: as §1

human Cereblon WT GST-tagged protein, sequence (Q96SW2 whole entry): as the sequence (Q96SW2 whole entry) above

SMILES | IC50 [1] [nM] | substrate protein remaining % IKZF1 (IKZF1) | substrate protein remaining % IKZF3 (IKZF3) | substrate protein remaining % GSPT1 (GSPT1)
O=C1CCC(N2Cc3c(CN4CCC5(CC4)CCN(C(c4ccccc4)c4ccccc4)CC5)cccc3C2=O)C(=O)N1 (stereo not drawn) [GT-06027, 3-(4-((9-benzhydryl-3,9-diazaspiro[5.5]undecan-3-yl)methyl)-1-oxoisoindolin-2-yl)piperidine-2,6-dione] | 1000 to 1900 | B (B represents substrate protein remaining % > 50%) | B (B represents substrate protein remaining % > 50%) | A (A represents 0% ≤ substrate protein remaining % ≤ 50%)
O=C1CCC(N2Cc3c(ccc(CN4CC5CN(C(c6ccccc6)c6ccccc6)CC5C4)c3F)C2=O)C(=O)N1 (stereo not drawn) [GT-06044, 3-(5-((5-benzhydrylhexahydropyrrolo[3,4-c]pyrrol-2 (1H)-yl)methyl)-4-fluoro-1-oxoisoindolin-2-yl)piperidine-2,6-dione] | < 500 | B (B represents substrate protein remaining % > 50%) | A (A represents 0% ≤ substrate protein remaining % ≤ 50%) | A (A represents 0% ≤ substrate protein remaining % ≤ 50%)
O=C1CCC(N2Cc3cc(CN4CC5CN(C(c6ccccc6)c6ccccc6)CC5C4)cc(F)c3C2=O)C(=O)N1 (stereo not drawn) [GT-06045, 3-(5-((5-benzhydrylhexahydropyrrolo[3,4-c]pyrrol-2 (1H)-yl)methyl)-7-fluoro-1-oxoisoindolin-2-yl)piperidine-2,6-dione] | < 500 | B (B represents substrate protein remaining % > 50%) | B (B represents substrate protein remaining % > 50%) | A (A represents 0% ≤ substrate protein remaining % ≤ 50%)
C[C@@H]1CN(C(c2ccccc2)c2ccccc2)CCN1Cc1cc2c(cc1F)C(=O)N(C1CCC(=O)NC1=O)C2 (stereo partly drawn) [GT-06046, 3-(5-(((R)-4-benzhydryl-2-methylpiperazin-1-yl)methyl)-6-fluoro-1-oxoisoindolin-2-yl)piperidine-2,6-dione] | 500 to 1000 | B (B represents substrate protein remaining % > 50%) | B (B represents substrate protein remaining % > 50%) | A (A represents 0% ≤ substrate protein remaining % ≤ 50%)
O=C1CCC(N2Cc3cc(CN4CCN(C5c6cc(Cl)ccc6-c6ccc(Cl)cc65)CC4)ccc3C2=O)C(=O)N1 (stereo not drawn) [GT-06048, 3-(5-((4-(2,7-dichloro-9H-fluoren-9-yl)piperazin-1-yl)methyl)-1-oxoisoindolin-2-yl)piperidine-2,6-dione] | < 500 | A (A represents 0% ≤ substrate protein remaining % ≤ 50%) | A (A represents 0% ≤ substrate protein remaining % ≤ 50%) | A (A represents 0% ≤ substrate protein remaining % ≤ 50%)
O=C1CCC(N2Cc3cc(CN4CC5CN(C(c6ccccc6)c6ccccc6)CC5C4)ccc3C2=O)C(=O)N1 (stereo not drawn) [GT-06050, 3-(5-((5-benzhydrylhexahydropyrrolo[3,4-c]pyrrol-2 (1H)-yl)methyl)-1-oxoisoindolin-2-yl)piperidine-2,6-dione] | < 500 | B (B represents substrate protein remaining % > 50%) | B (B represents substrate protein remaining % > 50%) | A (A represents 0% ≤ substrate protein remaining % ≤ 50%)
O=C1CCC(N2Cc3c(CN4CC5CN(C(c6ccccc6)c6ccccc6)CC5C4)cccc3C2=O)C(=O)N1 (stereo not drawn) [GT-06052, 3-(4-((5-benzhydrylhexahydropyrrolo[3,4-c]pyrrol-2 (1H)-yl)methyl)-1-oxoisoindolin-2-yl)piperidine-2,6-dione] | < 500 | B (B represents substrate protein remaining % > 50%) | B (B represents substrate protein remaining % > 50%) | A (A represents 0% ≤ substrate protein remaining % ≤ 50%)
CC1(C)CN(C(=O)c2ccc3c(c2)CN(C2CCC(=O)NC2=O)C3=O)CCN1C(c1ccccc1)c1ccccc1 (stereo not drawn) [GT-06061, 3-(5-(4-benzhydryl-3,3-dimethylpiperazine-1-carbonyl)-1-oxoisoindolin-2-yl)piperidine-2,6-dione] | 500 to 1000 | B (B represents substrate protein remaining % > 50%) | B (B represents substrate protein remaining % > 50%) | A (A represents 0% ≤ substrate protein remaining % ≤ 50%)
O=C1CCC(N2Cc3cc(C(=O)N4CCC5(CCN(C(c6ccccc6)c6ccccc6)CC5)C4)ccc3C2=O)C(=O)N1 (stereo not drawn) [GT-06063, 3-(5-(8-benzhydryl-2,8-diazaspiro[4.5]decane-2-carbonyl)-1-oxoisoindolin-2-yl)piperidine-2,6-dione] | 500 to 1000 | B (B represents substrate protein remaining % > 50%) | B (B represents substrate protein remaining % > 50%) | A (A represents 0% ≤ substrate protein remaining % ≤ 50%)
O=C1CCC(N2Cc3cc(C(=O)N4CCC5(CC4)CCN(C(c4ccccc4)c4ccccc4)CC5)ccc3C2=O)C(=O)N1 (stereo not drawn) [GT-06065, 3-(5-(9-benzhydryl-3,9-diazaspiro[5.5]undecane-3-carbonyl)-1-oxoisoindolin-2-yl)piperidine-2,6-dione] | < 500 | B (B represents substrate protein remaining % > 50%) | B (B represents substrate protein remaining % > 50%) | A (A represents 0% ≤ substrate protein remaining % ≤ 50%)
O=C1CCC(N2Cc3cc(C(=O)N4CC5CN(C(c6ccccc6)c6ccccc6)CC5C4)ccc3C2=O)C(=O)N1 (stereo not drawn) [GT-06067, 3-(5-(5-benzhydryloctahydropyrrolo[3,4-c]pyrrole-2-carbonyl)-1-oxoisoindolin-2-yl)piperidine-2,6-dione] | 500 to 1000 | B (B represents substrate protein remaining % > 50%) | B (B represents substrate protein remaining % > 50%) | A (A represents 0% ≤ substrate protein remaining % ≤ 50%)
O=C1CCC(N2Cc3cc(C(=O)N4CCN(C(c5ccccc5)c5ccccc5)CC4C(F)(F)F)ccc3C2=O)C(=O)N1 (stereo not drawn) [GT-06071, 3-(5-(4-benzhydryl-2-(trifluoromethyl)piperazine-1-carbonyl)-1-oxoisoindolin-2-yl)piperidine-2,6-dione] | 500 to 1000 | B (B represents substrate protein remaining % > 50%) | B (B represents substrate protein remaining % > 50%) | A (A represents 0% ≤ substrate protein remaining % ≤ 50%)
O=C1CCC(N2Cc3cc(C(=O)N4CCN(C(c5ccccc5)c5ccccc5)CC4C(F)(F)F)cc(F)c3C2=O)C(=O)N1 (stereo not drawn) [GT-06090, 3-(5-(4-benzhydryl-2-(trifluoromethyl)piperazine-1-carbonyl)-7-fluoro-1-oxoisoindolin-2-yl)piperidine-2,6-dione] | 1000 to 1900 | B (B represents substrate protein remaining % > 50%) | B (B represents substrate protein remaining % > 50%) | A (A represents 0% ≤ substrate protein remaining % ≤ 50%)
C[C@@H]1CN(C(c2ccccc2)c2ccccc2)CCN1C(=O)c1ccc2c(c1)CN(C1CCC(=O)NC1=O)C2=O (stereo partly drawn) [GT-06092, 3-(5-((R)-4-benzhydryl-2-methylpiperazine-1-carbonyl)-1-oxoisoindolin-2-yl)piperidine-2,6-dione] | < 500 | B (B represents substrate protein remaining % > 50%) | B (B represents substrate protein remaining % > 50%) | A (A represents 0% ≤ substrate protein remaining % ≤ 50%)
C[C@@H]1CN(C(c2ccccc2)c2ccccc2)CCN1C(=O)c1cc(F)c2c(c1)CN(C1CCC(=O)NC1=O)C2=O (stereo partly drawn) [GT-06093, 3-(5-((R)-4-benzhydryl-2-methylpiperazine-1-carbonyl)-7-fluoro-1-oxoisoindolin-2-yl)piperidine-2,6-dione] | 500 to 1000 | B (B represents substrate protein remaining % > 50%) | B (B represents substrate protein remaining % > 50%) | A (A represents 0% ≤ substrate protein remaining % ≤ 50%)

Reference: patent US20250320193A1, “OXOISOINDOLINYL SUBSTITUTED PIPERIDINEDIONE DERIVATIVE AND USE THEREOF” (GLUETACS THERAPEUTICS (SHANGHAI) CO., LTD., priority 2022, published 2025)
